The nature of assay [1]: Cobalt (II) binding assay in vitro (absorbance spectrum). The settings on record: absorbance 300-700 nm. As to the method:
For each cluster I compound (CIL13, −52, and −64), prepared two-fold dilution series with DMSO. We added 30 μL per well of either water or 10 μM cobalt (II) chloride solution to each well of a 384-well plate. Dilution series of each compound in DMSO were added by 10 μL per well. After solutions had been mixed by shaking of the plate using a Victor 3 plate reader (PerkinElmer), absorbance was scanned between 300 and 700 nm for each compound. Finally the following Absorbance value for each compound was plotted (see FIG. 9B):
[formula] where Abs is the absorbance at each wavelength. Search of Commercially Available Structural Analogs of CIL41/70.

For a further assay, the target named is T1, truncated human SQS (Homo sapiens, UniProt P37268).
T1 construct: truncated human squalene synthase (SQS 31-370) in pET28a expression vector; made in house; host or cells: Escherichia coli BL21-Gold (DE3)
T1 sequence (P37268 31-370): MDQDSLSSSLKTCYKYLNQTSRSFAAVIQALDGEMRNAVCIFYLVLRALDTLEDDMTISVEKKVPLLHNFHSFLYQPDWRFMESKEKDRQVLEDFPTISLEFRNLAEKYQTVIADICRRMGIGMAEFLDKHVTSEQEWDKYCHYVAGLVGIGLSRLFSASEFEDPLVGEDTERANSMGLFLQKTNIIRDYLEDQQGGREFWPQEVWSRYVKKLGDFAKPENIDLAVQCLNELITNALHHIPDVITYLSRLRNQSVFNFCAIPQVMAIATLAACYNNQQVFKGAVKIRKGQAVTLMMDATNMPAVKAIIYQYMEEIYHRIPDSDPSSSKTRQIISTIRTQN
In words: SQS competition assay with purified truncated SQS, FIN56 and active probe. The settings on record: pre-incubation with 100 μM FIN56 for two hours. Type of assay: binding. As to the method:
Bacterial expression and purification of truncated human SQS for competition assay. The plasmid encoding the truncated human squalene synthase (SQS 31-370) in pET28a expression vector, kindly provided by Chia-I Liu and Andrew H. J. Wang (Academia Sinica, Taiwan), was confirmed by DNA sequencing (Gene Wiz, Inc.) and then used to transform Escherichia coli BL21-Gold (DE3) competent cells (Agilent Technologies). The cells with the construct were grown in LB media supplemented with 100 μg/mL […] at 37° C. until the OD600 reached 1. Protein expression was induced with 0.5 mM isopropyl β-D-thiogalactoside at 17° C. overnight (12-13 h). Cells were pelleted (4,000 g, 20 min, 4° C.) and lysed by sonication in SQS buffer (50 mM Tris, pH 7.4, 250 mM NaCl, 5 mM imidazole, 5 mM MgCl2, 1 mM TCEP). Cell lysate was then centrifuged at 15,000 g for 45 min at 4° C. The supernatant was loaded onto a chromatography column containing Ni Sepharose 6 Fast Flow beads (GE Life Sciences) equilibrated with SQS buffer. After two washes and one nonspecific wash of the beads, the bound SQS was eluted with 250 mM imidazole in the same buffer. The purity of eluted fractions was verified by SDS-PAGE as more than 90% pure. The fractions containing SQS were concentrated, flash-frozen, and stored at −80° C.
SQS competition assay with purified truncated SQS, FIN56, and active probe. […]

Another assay concerns 143B cells. Description: FIN56 lethality in 143B cells with or without mitochondrial DNA. Type of assay: cell-based. Particulars: ρ+ or ρ0 cells. The text has this: CoQ10 is an electron carrier in the mitochondrial respiratory chain and an endogenous antioxidant. However, whether it functions in the regulation of ferroptosis via either of these mechanisms remains to be elucidated. […] Thus, exactly how CoQ10 protects cells from FIN56 remains elusive, but the process may involve reprogramming of lipid metabolism in a way that is not conducive to the execution of ferroptosis, or a specific antioxidant action distinct from that of α-tocopherol.

The test system of assay [2] is glutathione (GSH and GSSG) in HT-1080 cells. In words: Glutathione-quantification assay. Type of assay: cell-based. Particulars: 5 μM FIN56 with 100 μM α-tocopherol; 10 h. The protocol:
Seeded 500,000 HT-1080 cells in a 10-cm dish. Cells were grown at 37° C. for 16 h. On the day of the analysis, cells were cotreated with 100 μM α-tocopherol and either vehicle (DMSO) or a ferroptosis inducer (10 μM erastin, 0.5 μM (1S,3R)-RSL3, or 5 μM FIN56) and incubated for 10 h. Cells were then trypsinized, pelleted, washed once with 400 μL of ice-cold PBS containing 1 mM EDTA, and sonicated. After the cell debris had been pelleted and removed, both oxidized and reduced glutathione in 120 μL of sample was quantified in technical triplicates using the QuantiChrome glutathione assay kit (BioAssay Systems). The glutathione quantity was normalized to the protein concentration measured via Bradford assay (Bio-Rad).

SMILES strings stand for the structures.

The values that follow come from US10947188B2, “Small molecule ferroptosis inducers” (THE TRUSTEES OF COLUMBIA UNIVERSITY IN THE CITY OF NEW YORK, priority 2016, dated 2021).

For `Cc1cccnc1Nc1nc(-c2ccccn2)cs1` [CIL13], the “binding to cobalt (II) in vitro” value in assay [1] is on record as “bound to cobalt (II) in vitro”.
As for `O=S(=O)(NC1CCCCC1)c1ccc2c(c1)C(=NO)c1cc(S(=O)(=O)NC3CCCCC3)ccc1-2` [FIN56, N2,N7-dicyclohexyl-9-(hydroxyimino)-9H-fluorene-2,7-disulfonamide], at truncated human SQS, the “competition of SQS binding to active affinity probe” value is reported as “efficiently suppressed”. In the assay on 143B cells, the “sensitivity of 143B cells with or without mitochondrial DNA” value was “both sensitive to FIN56-induced ferroptosis”. Besides, in assay [2], the glutathione depletion entry is “did not deplete glutathione”.
